Measurements: US8697739B2, “Bicyclic acetyl-CoA carboxylase inhibitors and uses thereof” (Novartis AG, priority 2010, dated 2014)

Assays:
[1] = molecular target: T1, human acetyl-CoA carboxylase 2 (ACC2) (Homo sapiens, UniProt O00763); assay: Acetyl-CoA carboxylase enzyme assay (malonyl-CoA formation by LC/MS/MS); format: biochemical; conditions: recombinant human ACC2 (aa 144-2458); read-out: IC50 ACC2
T1 construct: The cDNA encoding amino acids 144 to 2458 of human acetyl-CoA carboxylase 2; made in house; host or cells: Sf9 insect cells (baculovirus, pFastBac1)
T1 sequence (O00763 144-2458): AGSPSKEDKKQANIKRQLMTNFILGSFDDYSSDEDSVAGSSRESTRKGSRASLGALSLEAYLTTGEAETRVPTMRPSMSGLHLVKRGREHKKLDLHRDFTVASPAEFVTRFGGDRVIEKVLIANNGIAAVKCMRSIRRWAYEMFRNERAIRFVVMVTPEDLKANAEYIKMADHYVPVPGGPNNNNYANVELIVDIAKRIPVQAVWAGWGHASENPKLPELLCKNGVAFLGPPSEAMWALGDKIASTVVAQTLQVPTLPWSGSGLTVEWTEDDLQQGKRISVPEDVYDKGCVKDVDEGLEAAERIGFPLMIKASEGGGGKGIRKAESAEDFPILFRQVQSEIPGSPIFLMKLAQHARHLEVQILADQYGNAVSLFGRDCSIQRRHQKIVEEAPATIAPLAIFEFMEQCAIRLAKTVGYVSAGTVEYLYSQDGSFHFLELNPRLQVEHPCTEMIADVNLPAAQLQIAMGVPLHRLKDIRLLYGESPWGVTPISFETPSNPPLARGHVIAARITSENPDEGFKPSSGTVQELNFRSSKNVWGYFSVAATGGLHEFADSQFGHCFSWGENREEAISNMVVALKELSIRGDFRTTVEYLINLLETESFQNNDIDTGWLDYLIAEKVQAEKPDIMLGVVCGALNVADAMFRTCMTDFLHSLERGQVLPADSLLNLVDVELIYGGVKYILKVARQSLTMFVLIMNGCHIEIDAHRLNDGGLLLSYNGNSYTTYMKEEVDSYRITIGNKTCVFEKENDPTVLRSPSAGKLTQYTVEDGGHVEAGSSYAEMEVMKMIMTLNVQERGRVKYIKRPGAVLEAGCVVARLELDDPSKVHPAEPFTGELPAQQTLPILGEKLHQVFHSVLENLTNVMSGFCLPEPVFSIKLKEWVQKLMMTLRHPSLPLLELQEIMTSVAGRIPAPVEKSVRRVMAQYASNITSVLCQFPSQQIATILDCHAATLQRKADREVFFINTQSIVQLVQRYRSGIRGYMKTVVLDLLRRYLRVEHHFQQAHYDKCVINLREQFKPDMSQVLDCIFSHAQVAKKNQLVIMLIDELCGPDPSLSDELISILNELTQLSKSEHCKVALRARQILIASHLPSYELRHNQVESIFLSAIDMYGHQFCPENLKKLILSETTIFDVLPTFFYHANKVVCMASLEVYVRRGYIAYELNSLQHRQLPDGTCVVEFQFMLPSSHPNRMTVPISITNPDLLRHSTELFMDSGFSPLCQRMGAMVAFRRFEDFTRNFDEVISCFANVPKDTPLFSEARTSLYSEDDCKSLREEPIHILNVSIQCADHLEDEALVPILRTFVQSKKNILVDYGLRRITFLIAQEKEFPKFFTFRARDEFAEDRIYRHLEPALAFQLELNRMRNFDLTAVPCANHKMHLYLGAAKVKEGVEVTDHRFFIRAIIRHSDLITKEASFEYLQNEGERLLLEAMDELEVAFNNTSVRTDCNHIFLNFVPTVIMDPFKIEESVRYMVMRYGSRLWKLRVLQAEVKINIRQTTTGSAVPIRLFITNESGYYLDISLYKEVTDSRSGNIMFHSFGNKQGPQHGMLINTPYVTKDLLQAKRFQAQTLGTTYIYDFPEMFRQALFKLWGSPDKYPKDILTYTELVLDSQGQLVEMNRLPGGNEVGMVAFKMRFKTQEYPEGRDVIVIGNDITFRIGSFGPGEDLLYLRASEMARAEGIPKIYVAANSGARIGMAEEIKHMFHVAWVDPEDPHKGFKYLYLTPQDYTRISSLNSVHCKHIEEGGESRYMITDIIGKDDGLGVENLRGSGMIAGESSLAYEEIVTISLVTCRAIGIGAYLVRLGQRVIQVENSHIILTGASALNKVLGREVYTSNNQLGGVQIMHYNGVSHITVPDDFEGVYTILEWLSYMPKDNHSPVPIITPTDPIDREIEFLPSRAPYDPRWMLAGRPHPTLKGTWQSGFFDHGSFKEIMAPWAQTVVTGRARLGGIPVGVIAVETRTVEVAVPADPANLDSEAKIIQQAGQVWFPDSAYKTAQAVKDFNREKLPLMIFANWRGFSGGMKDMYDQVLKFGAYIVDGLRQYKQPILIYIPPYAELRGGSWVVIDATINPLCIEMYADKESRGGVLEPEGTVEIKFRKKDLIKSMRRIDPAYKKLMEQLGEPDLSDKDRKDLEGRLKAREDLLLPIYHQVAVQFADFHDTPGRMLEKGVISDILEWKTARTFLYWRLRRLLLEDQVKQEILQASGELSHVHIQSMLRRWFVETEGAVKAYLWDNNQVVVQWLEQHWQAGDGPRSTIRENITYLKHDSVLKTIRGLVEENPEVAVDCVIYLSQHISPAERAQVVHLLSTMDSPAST
Method in brief: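 Malonyl-CoA formation was read by LC/MS/MS MRM against a [13C3]-malonyl-CoA internal standard, after acetic acid quench. The enzyme was baculovirus/Sf9-expressed human ACC2 residues 144–2458, given 15 minutes room-temperature compound preincubation in HEPES pH 7.5 buffer with MgCl2, citrate and DTT. Substrate solution held 50 μM acetyl-CoA, 120 μM ATP and 2 mM KHCO3.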

[2] = system: HCVcc genotype 2a (JFH-1 strain) virus; assay: HCV assay: JFH-1 rLuc infection of Huh 7.5 cells, renilla luciferase readout; format: cell-based; conditions: Hepatitis C virus, Huh7.5; JFH-1 rLuc virus, MOI=0.01, Huh 7.5 cells, 72 hours, luciferase activity reduced by 50%
Protocol: (§1) The effect of compounds on HCV infection was determined in vitro using cell cultured (HCVcc) genotype 2a (JFH-1 strain) virus. A renilla luciferase reporter gene was inserted in the viral genome, the expression of which was under the control of HCV 5′UTR (JFH-1^rLuc). Thus, the inhibition of HCV infection or replication can be indirectly measured by the reduction of luciferase activity in the cells. A specifically adapted hepatoma cell line, Huh 7.5, which allowed higher infectivity of HCV in vitro, was cultured in Dulbecco's modified Eagle's medium (DMEM) supplemented with 2 mM L-glutamine, 0.1 mM non-essential amino acids and 10% heat-inactivated fetal bovine serum. The cells were infected with JFH-1^rLuc virus at an MOI=0.01 and were treated at the same time with serially diluted compounds. After 72 hours, luciferase activities in compound-treated cells were measured using the Renilla Luciferase Assay System (Promega) and were compared to those in untreated control cells. Concentration-dependent inhibition curves were generated, from which EC50 values, the concentrations of compounds at which luciferase activities were reduced by 50% relative to untreated control, were calculated. In parallel, cytotoxicity of compounds was determine by measuring the viability of compound-treated cells using CellTiter 96® AQueous One Solution Cell Proliferation Assay (Promega). CC50 represented the concentration of the compound at which cell viability was reduced by 50% compared to untreated control.

in vitro = format: cell-based; conditions: human
Protocol: as §1

| Molecule | IC50 [1] [nM] | EC50 [2] [nM] | CC50 at 72 h (in vitro) [nM] |
| --- | --- | --- | --- |
| CC(C)[C@H]1COCCN1C(=O)[C@H]1CC[C@H](NS(=O)(=O)c2ccc3c(Cl)c(-c4ccc(CCC(=O)O)cc4)n(C)c3c2)CC1 [Example 25, 3-(4-(3-chloro-6-(N-((1S,4r)-4-((S)-3-isopropylmorpholine-4-carbonyl)cyclohexyl)sulfamoyl)-1-methyl-H-indol-2-yl)phenyl)propanoic acid] | < 10 | 680 | > 33000 |
| Cn1c(-c2ccc(CCC(=O)O)cc2)c(Cl)c2ccc(S(=O)(=O)N[C@H]3CC[C@H](C(=O)N4CCOC[C@@H]4C4CC4)CC3)cc21 [Example 28, 3-(4-(3-chloro-6-(N-((1S,4r)-4-((S)-3-cyclopropylmorpholine-4-carbonyl)cyclohexyl)sulfamoyl)-1-methyl-1H-indol-2-yl)phenyl)propanoic acid] | < 10 | 510 | > 33000 |
| CC(C)[C@H]1COCCN1C(=O)[C@H]1CC[C@H](NS(=O)(=O)c2ccc3cc(-c4ccc(CCC(=O)O)cc4)n(C)c3c2)CC1 [Example 29, 3-(4-(6-(N-((1S,4r)-4-((S)-3-isopropylmorpholine-4-carbonyl)cyclohexyl)sulfamoyl)-1-methyl-1H-indol-2-yl)phenyl)propanoic acid] | < 10 | 2420 | > 33000 |
| COCCc1ccc(-c2cc3ccc(S(=O)(=O)N[C@H]4CC[C@H](C(=O)N5CCOC[C@@H]5C)CC4)cc3[nH]2)cc1 [Example 30, 2-(4-(2-methoxyethyl)phenyl)-N-((1S,4r)-4-((S)-3-methylmorpholine-4-carbonyl)cyclohexyl)-1H-indole-6-sulfonamide] | 10 | 710 | > 33000 |
| COCCc1ccc(-c2[nH]c3cc(S(=O)(=O)N[C@H]4CC[C@H](C(=O)N5CCOC[C@@H]5C)CC4)ccc3c2Cl)cc1 [Example 31, 3-chloro-2-(4-(2-methoxyethyl)phenyl)-N-((1S,4r)-4-((S)-3-methylmorpholine-4-carbonyl)cyclohexyl)-1H-indole-6-sulfonamide] | < 10 | 140 | 24000 |
| C[C@@H](NC(=O)[C@H]1CC[C@H](NS(=O)(=O)c2cnc3c(c2)N(C(=O)OCCOCc2ccccc2)CCN3)CC1)c1ccc(F)cc1 [Example 208, 2-(benzyloxy)ethyl 7-(N-((1R,4r)-4-((R)-1-(4-fluorophenyl)ethylcarbamoyl)cyclohexyl)sulfamoyl)-3,4-dihydropyrido[3,2-b]pyrazine-1(2H)-carboxylate] | 595 | 4740 | > 16700 |
| CCOc1ccc2cc(S(=O)(=O)N[C@H]3CC[C@H](C(=O)N[C@H](COC(=O)[C@@H](NC)C(C)C)c4ccccc4)CC3)ccc2n1 [Example 272, (S)-((S)-2-((1r,4S)-4-(2-ethoxyquinoline-6-sulfonamido)cyclohexanecarboxamido)-2-phenylethyl) 3-methyl-2-(methylamino)butanoate] | 175 | 14100 | > 16700 |
| Cn1c(-c2ccccc2)cc2ccc(S(=O)(=O)N[C@H]3CC[C@H](C(=O)N4CCN(c5ncccn5)CC4)CC3)cc21 [Example 431, 1-methyl-2-phenyl-N-((1r,4r)-4-(4-(pyrimidin-2-yl)piperazine-1-carbonyl)cyclohexyl)-1H-indole-6-sulfonamide] | 130 | 2230 | > 33000 |
| Cn1c(C2CC2)cc2ccc(S(=O)(=O)N[C@H]3CC[C@H](C(=O)N4CCOC[C@@H]4C4CC4)CC3)cc21 [Example 458, 2-cyclopropyl-N-((1S,4r)-4-((S)-3-cyclopropylmorpholine-4-carbonyl)cyclohexyl)-1-methyl-1H-indole-6-sulfonamide] | 35 | 240 | > 33000 |
| Cn1c(C2CC2)cc2ccc(S(=O)(=O)N[C@H]3CC[C@H](C(=O)NC(C4CC4)C4CC4)CC3)cc21 [Example 459, (1r,4r)-4-(2-cyclopropyl-1-methyl-1H-indole-6-sulfonamido)-N-(dicyclopropylmethyl)cyclohexanecarboxamide] | 630 | 210 | 26000 |
| COC(=O)CCc1ccc(-c2cc3ccc(S(=O)(=O)N[C@H]4CC[C@H](C(=O)N5CCOC[C@@H]5C5CC5)CC4)cc3n2C)cc1 [Example 473, methyl 3-(4-(6-(N-((1S,4r)-4-((S)-3-cyclopropylmorpholine-4-carbonyl)cyclohexyl)sulfamoyl)-1-methyl-1H-indol-2-yl)phenyl)propanoate] | < 10 | 200 | > 33000 |
| O=C([C@H]1CC[C@H](NS(=O)(=O)c2ccc3c(Cl)c(-c4ccccc4)[nH]c3c2)CC1)N1CCOC[C@@H]1C1CC1 [Example 474, 3-chloro-N-((1S,4r)-4-((S)-3-cyclopropylmorpholine-4-carbonyl)cyclohexyl)-2-phenyl-1H-indole-6-sulfonamide] | < 10 | 29 | > 67000 |
| COCCN(C(=O)[C@H]1CC[C@H](NS(=O)(=O)c2ccc3[nH]c(-c4ccccc4)nc3c2)CC1)C(C)C [Example 675, (1r,4R)-N-isopropyl-N-(2-methoxyethyl)-4-(2-phenyl-1H-benzo[d]imidazole-5-sulfonamido)cyclohexanecarboxamide] | 105 | – | – |
| COCCN(C(=O)[C@H]1CC[C@H](NS(=O)(=O)c2ccc3[nH]c(-c4ccccc4)nc3c2)CC1)C1CCCCC1 [Example 676, (1r,4R)-N-cyclohexyl-N-(2-methoxyethyl)-4-(2-phenyl-1H-benzo[d]imidazole-5-sulfonamido)cyclohexanecarboxamide] | 23 | – | – |
| C[C@@H](NC(=O)[C@H]1CC[C@H](NS(=O)(=O)c2ccc3ccccc3c2)CC1)c1ccc(F)cc1 [Example 677, (1r,4R)-N-((R)-1-(4-fluorophenyl)ethyl)-4-(naphthalene-2-sulfonamido)cyclohexanecarboxamide] | 10 | – | – |
| C[C@@H](NC(=O)[C@H]1CC[C@H](NS(=O)(=O)c2cccc3ccccc23)CC1)c1ccc(F)cc1 [Example 678, (1r,4R)-N-((R)-1-(4-fluorophenyl)ethyl)-4-(naphthalene-1-sulfonamido)cyclohexanecarboxamide] | 433 | – | – |
| COCC[C@@H](NC(=O)[C@H]1CC[C@H](NS(=O)(=O)c2ccc3c(ccn3C)c2)CC1)c1ccccc1 [Example 679, (1r,4R)-N-((R)-3-methoxy-1-phenylpropyl)-4-(1-methyl-1H-indole-5-sulfonamido)cyclohexanecarboxamide] | 110 | – | – |
| CC(NC(=O)[C@H]1CC[C@H](NS(=O)(=O)c2ccc3ccccc3c2)CC1)c1cccnc1 (stereo partly drawn) [Example 680, (1r,4r)-4-(naphthalene-2-sulfonamido)-N-(1-(pyridin-3-yl)ethyl)cyclohexanecarboxamide] | 240 | – | – |
| CC(NC(=O)[C@H]1CC[C@H](NS(=O)(=O)c2ccc3cc(Cl)ccc3c2)CC1)c1cccnc1 (stereo partly drawn) [Example 681, (1r,4r)-4-(6-chloronaphthalene-2-sulfonamido)-N-(1-(pyridin-3-yl)ethyl)cyclohexanecarboxamide] | 142 | – | – |
| C[C@@H](NC(=O)[C@H]1CC[C@H](NS(=O)(=O)c2ccc3ccccc3c2)CC1)c1cccnc1 [Example 682, (1r,4R)-4-(naphthalene-2-sulfonamido)-N-((R)-1-(pyridin-3-yl)ethyl)cyclohexanecarboxamide] | 144 | – | – |
| C[C@H](NC(=O)[C@H]1CC[C@H](NS(=O)(=O)c2ccc3ccccc3c2)CC1)c1cccnc1 [Example 683, (1r,4S)-4-(naphthalene-2-sulfonamido)-N-((S)-1-(pyridin-3-yl)ethyl)cyclohexanecarboxamide] | > 35000 | – | – |
| C[C@@H](NC(=O)[C@H]1CC[C@H](NS(=O)(=O)c2ccc3cc(Cl)ccc3c2)CC1)c1cccnc1 [Example 684, (1r,4R)-4-(6-chloronaphthalene-2-sulfonamido)-N-((R)-1-(pyridin-3-yl)ethyl)cyclohexanecarboxamide] | 180 | – | – |
| O=S(=O)(N[C@H]1CC[C@H](c2nnc(C3CCCCC3)o2)CC1)c1ccc2c(c1)CNCC2 [Example 685, N-((1r,4r)-4-(5-cyclohexyl-1,3,4-oxadiazol-2-yl)cyclohexyl)-1,2,3,4-tetrahydroisoquinoline-7-sulfonamide] | > 35000 | – | – |
| N-(4-(5-isopropyl-1,3,4-oxadiazol-2-yl)phenyl)-2-(4-morpholinophenyl)-1H-benzo[d]imidazole-5-sulfonamide [Example 591] | 1130 | – | – |
